Peptide text beside a SMILES is read from it.

The target in series [1] is T1, CTD (C-terminal domain of HIV-1 capsid protein CA) (Human immunodeficiency virus type 1 group M subtype B, UniProt P04591).
T1 construct: CA protein and the isolated CTD (either unlabelled or labelled) were purified as described previously; made in house
Nature of the series: CTD binding by fluorescence titration. The following applies: 20 µM wild-type dimeric CTD, 25°C, 50 mM phosphate buffer pH 7.0, 1:1 binding isotherm, read-out: CTD-binding K D. How it is done: Spectra were collected on a Cary Eclipse spectrofluorimeter (Varian, CA, USA). A concentration of 20 µM CTD and increasing peptide concentrations were used for titration experiments carried out at 25°C in 50 mM phosphate buffer pH 7.0. Excitation wavelength was 280 nm or 295 nm, and emission fluorescence was collected between 300 nm and 400 nm. The excitation and emission slits were set to 5 nm. The response time was 1 s. The dissociation constant of each complex was calculated by fitting the changes observed either in: (i) the fluorescence intensity at a particular wavelength; or (ii) the value of the average energy <λ> [42] for a fixed CTD concentration versus the concentration of added peptide as described.

The nature of series [2]: Solubility under the conditions of the NMR experiments. It counts as physicochemical. Particulars: aqueous buffer, long incubations at a relatively high temperature, 50 mM phosphate buffer pH 7.0, read-out: Concentration at which the peptide remained fully soluble. How it is done: NMR spectra were acquired at 20°C on a Bruker Avance DRX-500 spectrometer (Bruker GmbH, Germany) equipped with a triple resonance probe and z-pulse field gradients. Sodium trimethylsilyl [2,2,3,3-^2H4] propionate (Sigma) was used as the internal chemical shift reference in the homonuclear experiments. All experiments were carried out in 50 mM phosphate buffer pH 7.0. Assignments of the heteronuclear single quantum coherence (HSQC) NMR spectra were those previously obtained for the monomeric CTD [43], [44].
We first analyzed whether the CAC1-derived peptides CAC1C and CAC1M had any tendency to self-associate. […] The hydrodynamic radius (Rh) of the three peptides was similar (Table 1).

Another series addresses T2, HIV-1 capsid protein CA (Human immunodeficiency virus type 1 group M subtype B, UniProt P04591).
T2 construct: CA protein and the isolated CTD (either unlabelled or labelled) were purified as described previously; made in house
Nature of the series: CA polymerization in vitro (turbidity at 350 nm) with Ficoll-70 crowding agent. The class given is biochemical. The following applies: 20 µM CA. How it is done: Assembly reactions were carried out as described previously, [53] with some modifications. In general, the polymerization mixtures contained 50 mM sodium phosphate buffer pH 7.4, 2.25 M NaCl, 20 µM CA, and 100 g/l Ficoll-70 (GE HealthCare) as a macromolecular crowding agent. Where indicated, Ficoll-70 was omitted and the final CA concentration was raised to 46 µM. The experiments were initiated by introducing an appropriate volume of a CA solution in 50 mM phosphate buffer into a spectrophotometer cuvette (10-mm pathlength, 20 mm^2 internal section), and the assembly reaction was triggered by adding the appropriate volume of a solution containing 4 M NaCl, 179 g/l Ficoll-70 in 50 mM sodium phosphate buffer pH 7.4, to get the final concentrations desired for each component in a final volume of 500 µl, followed by rapid mixing by repeated inversion of the cell. The pH of the final reaction mixture was checked in a test sample. For inhibition assays, CA was mixed with the appropriate amounts of the peptides, and incubated for 30 minutes before triggering the reaction as indicated above. The time-dependent increase in the optical density at 350 nm as a measure of the light scattered by the assembled particles was monitored at 25°C using a UV-1603 spectrophotometer (Shimadzu, Japan), with data points collected every six seconds. Traces of the variation in the turbidity were analyzed as described previously, [53].

For series [3], the system named is U87-CD4-CXCR4 cells. Nature of the series: Transport of peptides into cells (fluorescence microscopy, flow cytometry). It counts as cell-based, Human. Particulars: rhodamine-labelled peptides in complex with Chariot 1:1, 3 h at 37°C. Here is the method:
To transport the peptides into NB324K or U87-CD4-CXCR4 cells a commercial cell-penetrating peptide (Chariot, Active Motif) was used, according to the manufacturer's recommendations. For fluorescence microscopy analyses, Chariot-peptide binding was accomplished by incubating a mixture containing between 5 µg and 50 µg of either FITC-labelled peptide or rhodamine-labelled peptide and the Chariot peptide at a 1∶1 molar ratio in 100 µl aliquots. Each 100 µl aliquot of the preincubated mixture was added to one well of a 24-well plate containing NB324K or U87-CD4-CXCR4 seeded the previous day (5·10^4 and 1.5·10^5 cells/well, respectively) and 100 µl of serum-free DMEM medium were added. The cells were incubated for 1–3 h, 800 µl DMEM containing 10% FBS were added, and incubation was continued for 1 h. Cells were fixed with a 1∶1 methanol∶acetone solution, their nucleus were stained with 4′,6-diamidino-2-phenylindol dihydrochloride (DAPI, Calbiochem), and cells were examined and imaged using an Axiovert200 (Zeiss) fluorescence microscope and/or a LSM-510 (Zeiss) confocal fluorescence microscope.
FITC-labelled peptides were transported into NB324K or U87-CD4-CXCR4 cells as described above. […] The resuspended cells were analyzed in a FACSCalibur flow cytometer (Becton Dickinson, USA).
(In general: In flow cytometry, cells or beads pass a laser one at a time.)

Another series relates to HIV-1 strain HXB2. The experiment in a line: Inhibition of HIV-1 production and infection in cultured cells (p24 antigen). It counts as cell-based. Particulars: U87-CD4-CXCR4 cells, Chariot-mediated transport. Here is the method:
U87-CD4-CXCR4 cells from cultured monolayers were collected using 0.25% trypsin and resuspended in DMEM supplemented with 10% FBS (without antibiotics). Cells were seeded in 96-well plates at a density of 3.5×10^4 cells/well and incubated for 24 h. Then, the cells were incubated as described above with mixtures of the corresponding peptides and the Chariot peptide at the appropriate concentrations. After three hours of incubation, the cells were washed with PBS and infected with HIV-1 at a multiplicity of infection of 0.0015 (0.0015 TCID50/cell). After incubation for 2 h at 37°C, the cells were washed with PBS and DMEM supplemented with 10% FBS, 0.5 mg/ml geneticin and 1 µg/ml puromycin were added, and the infected cells were further incubated at 37°C. Viral replication was quantified by measuring HIV-1 CA (p24 antigen) production in the culture supernatant 72 h after infection, using an enzyme-linked immunoassay (INNOTEST HIV-antigen, Innogenetics).

In series [4] the test system is U87-CD4-CXCR4 cells. The following applies: without cell-penetrating peptide; cited from earlier work.
The mark [5] stands for this setting: peptide:CA molar ratio of 5, 100 g/l Ficoll-70.

For `CSCC[C@H](NC(=O)[C@H](Cc1c[nH]c2ccccc12)NC(=O)[C@H](C)NC(=O)[C@H](CCCCN)NC(=O)[C@@H](NC(=O)[C@H](CO)NC(=O)[C@H](CO)NC(=O)[C@H](CO)NC(=O)[C@H](C)NC(=O)[C@H](CO)NC(=O)[C@@H](N)CCC(=O)O)C(C)C)C(=O)N[C@H](C(=O)N[C@@H](CCC(=O)O)C(=O)N[C@H](C(=O)N[C@@H](CC(C)C)C(=O)N[C@@H](CC(C)C)C(=O)N[C@H](C(=O)N[C@@H](CCC(N)=O)C(=O)N[C@@H](CC(N)=O)C(=O)N[C@@H](C)C(N)=O)C(C)C)[C@@H](C)O)[C@@H](C)O` [CAC1C] (H-ESASSSVKAWMTETLLVQNA-NH2), in series [1], the Kd worked out at 19 ± 8 µM. Further, in series [2], the solubility was at least 200 µM.
For the compound `CSCC[C@H](NC(=O)[C@H](Cc1c[nH]c2ccccc12)NC(=O)[C@H](C)NC(=O)[C@H](CCCCN)NC(=O)[C@@H](NC(=O)[C@H](CO)NC(=O)[C@H](CO)NC(=O)[C@H](C)NC(=O)[C@H](C)NC(=O)[C@H](CO)NC(=O)[C@H](CCC(=O)O)NC(=O)[C@@H](N)CO)C(C)C)C(=O)N[C@H](C(=O)N[C@@H](CCC(=O)O)C(=O)N[C@H](C(=O)N[C@@H](CC(C)C)C(=O)N[C@@H](CC(C)C)C(=O)N[C@H](C(=O)N[C@@H](C)C(=O)N[C@@H](CC(N)=O)C(=O)N[C@H](C(=O)N[C@@H](CO)C(=O)N[C@@H](CO)C(N)=O)[C@@H](C)O)C(C)C)[C@@H](C)O)[C@@H](C)O` [CAC1M] (H-SESAASSVKAWMTETLLVANTSS-NH2), the Kd in series [1] came out at 8 ± 1 µM. Besides, the solubility in series [2] is at least 200 µM. At HIV-1 capsid protein CA (setting [5]), the “Higher reduction in polymerization rate compared to CAC1” value is around 30% and the “Higher reduction in total capsid production compared to CAC1” value is listed as “about 20%”. For the same compound, the “Chariot-mediated transport of peptides into HIV-1-susceptible cells” value in the series on U87-CD4-CXCR4 cells [3] is “had been achieved”.
For the compound ITFEDLLDYYGP [CAI], the “Inhibition of in vitro assembly of HIV-1 capsid-like particles, single inhibitor” value on HIV-1 capsid protein CA (100 g/l Ficoll-70, 2.25 M NaCl, pH 7.4, 25°C, 30 min preincubation, inhibitor:CA molar ratios up to 10 (CAI 0.1-0.5)) is “very efficient”. Further, in the series with HIV-1 strain HXB2 (MOI 0.0015, p24 at 72 h, H4 tested up to close to 2 mM), the “Inhibitory activity of single peptides on HIV-1 production ex vivo” value was “at most a weak inhibitory activity”. The “Peptide concentration required for weak inhibitory activity on HIV-1 production ex vivo” value with HIV-1 strain HXB2 (p24 at 72 h) is above 1 mM. In the series with U87-CD4-CXCR4 cells [3], the “Chariot-mediated transport of peptides into HIV-1-susceptible cells” value was “had been achieved”. Besides, the “Ability of the peptide to penetrate cells” value with U87-CD4-CXCR4 cells [4] is “unable to penetrate cells”.
